Tests used:
[1] = Mammalian toxicity, oral, Swiss white mice (LD50); type: in vivo; settings: mouse, in vivo; oral, corn oil carrier, Swiss white mice
Description: (§1) Mammalian toxicity was determined against Swiss white mice. The test compound was applied orally using corn oil as the carrier.

[2] = tested on: house flies, Musca domestica; test: Topical insecticidal activity against house flies (percent mortality 24 h after application, LD50); type: in vivo; settings: read-out: House fly LD50
Description: Representative compounds of the invention were tested for insecticidal activity against house flies, Musca domestica. Stock 1% concentrated solutions of each of the test compounds were made in acetone, and such solutions diluted with acetone to a concentration of 0.001-0.1%. House flies were treated topically on the notum by 1 μl of each of the diluted acetone solutions and percent mortality was counted 24 hours after application.

[3] = tested on: Swiss white mice; test: Mammalian toxicity, oral, Swiss white mice (LD50); type: in vivo; settings: mouse oral, from Table II
Description: as §1

[4] = tested on: mammals; settings: in vivo; cited from earlier work
[5] = tested on: insects; settings: in vivo; cited from earlier work
[6] = Water solubility; type: physicochemical

SMILES | LD50 [1] | LD50 [2] | mammalian toxicity compared with methamidophos [3] | mammalian toxicity (background) [4] | insecticidal activity / toxicity to insects (background) [5] | water solubility [6]
CCN(SNP(=O)(OC)SC)C(=O)OC (centres unmarked) [Compound 1, O,S-dimethyl N-(N'-methoxycarbonyl-N'-ethylaminosulfenyl)phosphoramidothioate] | 30 mg/kg | 2.8 mg/kg |  |  |  | 
CCCCCCOC(=O)N(CC)SNP(=O)(OC)SC (centres unmarked) [Compound 2] | 34 mg/kg | 3.8 mg/kg |  |  |  | 
CCCN(SNP(=O)(OC)SC)C(=O)OC (centres unmarked) [Compound 3] |  | 1.6 mg/kg |  |  |  | 
CCCN(SNP(=O)(OC)SC)C(=O)OCC (centres unmarked) [Compound 4] |  | 2 mg/kg |  |  |  | 
CCCOC(=O)N(CCC)SNP(=O)(OC)SC (centres unmarked) [Compound 5] | 36 mg/kg | 1.9 mg/kg |  |  |  | 
CCOC(=O)N(SNP(=O)(OC)SC)C(C)C (centres unmarked) [Compound 6, O,S-Dimethyl N-[N'-(ethoxycarbonyl)-N'-(isopropylaminosulfenyl)]phosphoramidothioate] | 50 mg/kg | 1.9 mg/kg | lower |  |  | 
COP(=O)(NSN(C(=O)OC(C)C)C(C)C)SC (centres unmarked) [Compound 7, O,S-Dimethyl N-[N'-(isopropoxycarbonyl)-N'-(isopropylaminosulfenyl)]phosphoramidothioate] |  | 2.7 mg/kg |  |  |  | 
CCCOC(=O)N(SNP(=O)(OC)SC)C(C)C (centres unmarked) [Compound 8, O,S-dimethyl N-(N'-propoxycarbonyl-N'-isopropylaminosulfenyl)phosphoramidothioate] | 50 mg/kg | 2.5 mg/kg | lower |  |  | 
CCOC(=O)N(SNP(=O)(OC)SC)C(C)(C)C (centres unmarked) [Compound 9, O,S-Dimethyl N-[N'-(ethoxycarbonyl)-N'-(tert.-butylaminosulfenyl)]phosphoramidothioate] | 50 mg/kg | 2.5 mg/kg | lower |  |  | 
CCCOC(=O)N(SNP(=O)(OC)SC)C(C)(C)C (centres unmarked) [Compound 10] | 50 mg/kg | 1.6 mg/kg | lower |  |  | 
COP(N)(=O)SC (centres unmarked) [Methamidophos, O,S-dimethyl phosphoramidothiote] |  |  |  | high toxicity to both insects and mammals | high toxicity to both insects and mammals | freely soluble in water
COP(=O)(NC(C)=O)SC (centres unmarked) [acephate] |  |  |  | relatively low mammalian toxicity | high insecticidal activity | 
